Test results: US20200371122A1, “BIOMARKER FOR SENESCENT CELLS” (Buck Institute for Research on Aging, priority 2017, published 2020)

Assays:
[1] = system: IMR-90 fibroblasts; assay: Induction of senescence in non-senescent cells by prostaglandins or 5-LOX pathway products (EdU, SA-B-gal, p21, immunoblot); assay type: cell-based, human
Experimental: RNA was extracted from cells or tissues using commercially available kits (Isolate II—Bioline for cells; Direct-zol—Zymo for tissues) according to the manufacturer's instructions. cDNA synthesis was performed using a High Capacity cDNA Reverse Transcription Kit (Thermo Fisher) according to the manufacturer's instructions. Quantitative PCR was performed on a LightCycler 480 II (Roche) using primers and probes designed for the Universal Probe Library. Primers and probes used for human transcripts were ACTB: 5′-CCAACCGCGAGAAGATGA (SEQ ID NO:1), 5′-TCCATCACGATGCCAGTG (SEQ ID NO:2), Probe #64; TUBA: 5′-cttcgtctccgccatcag (SEQ ID NO:3), 5′-ttgccaatctggacacca (SEQ ID NO:4), Probe #58; ALOX5: 5′-[…] (SEQ ID NO:5), 5′-[…] (SEQ ID NO:6), Probe #64; ALOX5AP: 5′-ggtctgcggggctacttt (SEQ ID NO:7), 5′-[…] (SEQ ID NO:8), Probe #18; ALOX12: 5′-[…] (SEQ ID NO:9), 5′-agccaggtcgtcaggag (SEQ ID NO:10), Probe #32; ALOX15: 5′-[…] (SEQ ID NO:11), 5′-[…] (SEQ ID NO:12), Probe #76; ALOX15B: 5′-[…] (SEQ ID NO:13), 5′-actgggaggcgaagaagg (SEQ ID NO:14), Probe #51; AKR1C1: 5′-catgcctgtcctgggattt (SEQ ID NO:15), 5′-[…] (SEQ ID NO:16), Probe #49; AKR1C2: 5′-ctatgcgcctgcagaggt (SEQ ID NO:17), 5′-[…] (SEQ ID NO:18), Probe #31; AKR1C3: 5′-[…] (SEQ ID NO:19), 5′-[…] (SEQ ID NO:20), Probe #78; CYSLTR2: 5′-[…] (SEQ ID NO:21), 5′-[…] (SEQ ID NO:22), Probe #18; DPEP1: 5′-gacgtcctgaggctggtg (SEQ ID NO:23), 5′-[…] (SEQ ID NO:24), Probe #9 (SEQ ID NO:25), ELOVL2: 5′-[…] (SEQ ID NO:26), 5′-[…] (SEQ ID NO:27), Probe #53; ELOVL4: 5′-catttggcccatggattc (SEQ ID NO:28), 5′-[…] (SEQ ID NO:29), Probe #31; ELOVL5: 5′-cccttccatgcgtccata (SEQ ID NO:30), 5′-[…] (SEQ ID NO:31), Probe #31; EPHX2: 5′-ttctgctggacaccctgaa (SEQ ID NO:32), 5′-[…] (SEQ ID NO:33), Probe #45; GPX4: 5′-ttcccgtgtaaccagttcg (SEQ ID NO:34), 5′-[…] (SEQ ID NO:35), Probe #36; LTA4H: 5′-ctgctctcacggtccagtc (SEQ ID NO:36), 5′-[…] (SEQ ID NO:37), Probe #64; LTBR2: 5′-[…] (SEQ ID NO:38), 5′-[…] (SEQ ID NO:39), Probe #33; LTC4S: 5′-[…] (SEQ ID NO:40), 5′-[…] (SEQ ID NO:41), Probe #18; PTGDS: 5′-[…] (SEQ ID NO:42), 5′-[…] (SEQ ID NO:43), Probe #36; PTGES: 5′-agagatgcctgcccacag (SEQ ID NO:44), 5′-tggccaccacgtacatctt (SEQ ID NO:45), Probe #4; PTGES2: 5′-[…] (SEQ ID NO:46), 5′-[…] (SEQ ID NO:47), Probe #49; PTGES3 (SEQ ID NO:48), 5′-[…] (SEQ ID NO:49), 5′-[…] (SEQ ID NO:50), Probe #48; PTGIS: 5′-[…] (SEQ ID NO:51), 5′-[…] (SEQ ID NO:52), Probe #45; PTGR1: 5′-atgatggggcagcaagtg (SEQ ID NO:53), 5′-cccatcagaaatggagtgc (SEQ ID NO:54), Probe #64; PTGS1: 5′-[…] (SEQ ID NO:55), 5′-gtggtggtccatgttcctg (SEQ ID NO:56), Probe #81; PTGS2: 5′-gatccccagggctcaaac (SEQ ID NO:57), 5′-[…] (SEQ ID NO:58), Probe #61; TBXAS1: 5′-[…] (SEQ ID NO:59), 5′-tgcctcccgtgtgaatct (SEQ ID NO:60), Probe #73; AREG: 5′-[…] (SEQ ID NO:61), 5′-[…] (SEQ ID NO:62), Probe #73; CCL2: 5′-AGTCTCTGCCGCCCTTCT (SEQ ID NO:63), 5′-GTGACTGGGGCATTGATTG (SEQ ID NO:64), Probe #40; CCL27: 5′-[…] (SEQ ID NO:65), 5′-gctgggtggcagtaggaat (SEQ ID NO:66), Probe #18; CXCL1: 5′-[…] (SEQ ID NO:67), 5′-[…] (SEQ ID NO:68), Probe #52; HGF: 5′-[…] (SEQ ID NO:69), 5′-[…] (SEQ ID NO:70), Probe #49; ILIA: 5′-[…] (SEQ ID NO:71), 5′-[…] (SEQ ID NO:72), Probe #6; IL1B: 5′-[…] (SEQ ID NO:73), 5′-[…] (SEQ ID NO:74), Probe #78; IL6: 5′-[…] (SEQ ID NO:75), 5′-gaaggcagcaggcaacac (SEQ ID NO:76), Probe #45; IL8: 5′-[…] (SEQ ID NO:77), 5′-atggttccttccggtggt (SEQ ID NO:78), Probe #72; IL10: 5′-[…] (SEQ ID NO:79), 5′-[…] (SEQ ID NO:80), Probe #67; MMP3: 5′-[…] (SEQ ID NO:81), 5′-[…] (SEQ ID NO:82), Probe #36; PDGFA: 5′-[…] (SEQ ID NO:83), 5′-[…] (SEQ ID NO:84), Probe #80; VEGF: 5′-[…] (SEQ ID NO:85), 5′-[…] (SEQ ID NO:86), Probe #50; P21WAF1(CDKN1A): 5′-[…]

[2] = system: IL-6 secretion; assay: IL-6 ELISA on non-senescent cells treated with prostaglandins; assay type: cell-based, human; conditions: 10 μM, 10 days
Experimental: Human fetal lung fibroblasts (IMR-90) were cultured in Dulbecco's modified eagle medium (DMEM) supplemented with 10% FBS and penicillin/streptomycin. LL 29 (AnHa) cells were obtained from the ATCC and growth to confluence using the ATCC protocol, but were subcultured as described for IMR-90 before initiation of all experiments. Quiescence was induced by replacing culture media with media containing 0.2% FBS. MCF-7 and MDA-MB-231 breast cancer cells were cultured in RPMI supplemented with 10% FBS and penicillin/streptomycin. All cells were cultured at 3% O2, and used between 25 and 40 population doublings. All cells were mycoplasma free.
3×10^4 cells in 12-well plates were treated as indicated in the text, and cultured in 0.5-1 ml serum-free DMEM for 24 hr. CM were collected and clarified at 2,000×g for 10 min. Supernatants were transferred to a tube; cells were trypsinized and counted. CM (2.5 μl) were analyzed by bead-based ELISAs (AlphaLISA, Perkin-Elmer) as instructed by the manufacturer and normalized to cell number.

[3] = system: IMR-90 fibroblasts depleted of p53 by shRNA; assay: Prostaglandin treatment of p53-depleted (shp53) IMR-90 fibroblasts (Ki67, cleaved caspase 3); assay type: cell-based, human; conditions: shp53 cells, 3 days
Experimental: For EdU labeling, cells were cultured with EdU (10 μM) for 24 h, fixed in 4% buffered formalin for 10 min, washed in PBS, and permeabilized in 0.5% Triton X-100 for 30 min. Cells were treated as instructed by the manufacturer Life Technologies Cat #C10337). For immunofluorescence, cells were blocked in 10% normal goat serum for 30 min, washed, and incubated overnight in antibodies to Ki67 (Abcam) or cleaved caspase 3 (Cell Signaling). Cell were then washed, incubated in fluorescent secondary antibodies, and mounted using vectashield mounting medium with DAPI.

[4] = system: bleomycin-induced fibrosis; conditions: administration; Kida 2016, Genovese 2005; cited from earlier work

SMILES: CCCCC[C@H](O)/C=C/[C@H]1C(=O)C[C@H](O)[C@@H]1C/C=C\CCCC(=O)O [PGD2, prostaglandin D2]
- levels of LMNB1 and cellular HMGB1 ([1]; 10 μM, 10 days): reduced levels
- p21 gene expression ([1]; 10 μM, 10 days): induced
- senescence-associated beta-galactosidase ([1]; 10 μM, 10 days): induced
- p21 protein accumulation ([1]; 10 μM, 10 days, immunoblot): induced
- p53 stabilization ([1]; 10 μM, 10 days, immunoblot): stabilized
- p53 phosphorylation or acetylation ([1]; 10 μM, 10 days, western blot): without increasing
- expression of MMP3 and secretion of IL-6 on removal of the prostaglandin ([1]; release after 7 days at 10 μM): reduced
- IL-6 secretion [2]: elevated
- apoptosis (positivity for cleaved caspase 3) [3]: underwent apoptosis
- continued cell division (Ki67 positivity) after loss of p53 [3]: did not allow
- bleomycin-induced fibrosis [4]: attenuate
